Tests used:
Format in all cases: cell-based
[1] = system: nitric oxide (NO) production in LPS + IFN-γ activated RAW 264.7 macrophages; test: Inhibition of NO production (Griess assay) in LPS + IFN-γ activated RAW 264.7 macrophages; details: for IC50: Mus musculus, RAW264.7, 24 hrs, N = 6, mean ± SD; for Anti-inflammatory activity (in words): verbal judgement of Table 3 data
Method: (§1) All compounds were assessed for their anti-inflammatory activity by evaluating the inhibition of NO production and TNF-α in LPS plus interferon (IFN)-γ activated RAW 264.7 macrophages. All compounds were also evaluated for their cytotoxicity using the Alamar blue assay (Table 3).
(§2) Cells were grown in 75 cm^2 flasks on Dulbecco’s Modified Eagle Medium (DMEM) containing 10% fetal bovine serum (FBS) that was supplemented with penicillin (100 U/mL), streptomycin (100 μg/mL) and L-glutamine (2 mM). The cell line was maintained in 5% CO2 at 37 °C, with media being replaced every 3–4 days. Once cells had grown to confluence in the culture flask, they were harvested using a rubber policeman, as opposed to using trypsin, which can remove membrane-bound receptors.
(§3) RAW 264.7 cells (1 × 10^6 cells/mL) were seeded in 96 well plates (Corning® Costar®, Sigma, Sydney, Australia) overnight until confluency. When the cells were confluent, each compound was serially diluted from a starting concentration of 100 μg mL^−1 to construct a dose response curve (i.e., 100, 50, 25, 12.5, 6.25, and 3.13 μg mL^−1) and co-incubated with cells for 1 hr prior to the addition of 1 μg mL^−1 LPS and 10 U mL^−1 (1 unit = 0.1 ng/mL) IFN-γ. After activation, the cells were incubated for another 24 hrs at 37 °C. The supernatant was then collected for NO, and TNF-α assays. The cells were subjected to cell viability measurement using the Alamar Blue assay. Non-activated cells (exposed to media only) were used as negative control and activated cells were positive control.
Nitric oxide was determined by the Griess reagent as described in previous studies. Griess reagent was freshly made up of equal volumes of 1% sulfanilamide in 5% phosphoric acid and 0.1% N-1-naphthylethylenediamine dihydrochloride in Milli-Q water. From each well, 50 µL of supernatant was transferred to a fresh 96-well plate and mixed with 50 µL of Griess reagent. The production of nitrite as an indicator of NO was measured at 540 nm in a POLARstar Omega microplate reader (BMG Labtech, Mornington, Australia).
(§4) Data analysis was carried using GraphPad Prism 9.3.1. Calculations were performed using MS-Excel version 16.61.1. IC50 values were obtained by using the sigmoidal dose–response function in GraphPad Prism. The results were expressed as mean ± standard deviation (SD).

[2] = system: TNF-α production in LPS + IFN-γ activated RAW 264.7 macrophages; test: Inhibition of TNF-α production (ELISA) in LPS + IFN-γ activated RAW 264.7 macrophages; details: Mus musculus, RAW264.7, 24 hrs, N = 6, mean ± SD
Method: as §1, §2, §3
The stored supernatants were analyzed for TNF-α synthesis using a commercial ELISA kit (Peprotech, Brisbane, Australia) according to the manufacturer’s instructions. The absorbance was measured at 410 nm. The concentrations of TNF-α in the experimental samples were extrapolated from a standard curve.
as §4

[3] = system: RAW 264.7 macrophages; test: Cell viability / cytotoxicity by the Alamar Blue assay; details: Mus musculus, RAW264.7, 24 h, LPS + IFN-γ activated RAW 264.7 macrophages, N = 6, mean ± SD
Method: as §1, §2, §3
After various treatments and the stimulation by LPS and IFN-γ overnight, 100 µL of Alamar Blue solution [10% Alamar Blue (resazurin) in DMEM media] was added to cells and incubated at 37 °C for 2 hrs. The fluorescence intensity was measured with excitation at 530 nm and emission at 590 nm using a microplate reader. The results were expressed as a percentage of the intensity to that of control cells (non-activated cells).
as §4

IC50 [1]	IC50 [2]	SMILES	CC50 [3]	Anti-inflammatory activity (in words) [1]
44.1 ± 13.4 µg/mL	> 100 µg/mL	COc1ccc([C@@H]2Oc3c(O)cc(CCCO)cc3[C@H]2CO)cc1OC [Compound 7, 4-O-methylcedrusin]	> 100 µg/mL	did not show good anti-inflammatory activity
> 100 µg/mL	> 100 µg/mL	COc1cc([C@@H]2Oc3c(OC)cc(CCCO)cc3[C@H]2CO)ccc1O [Compound 8, 7-O-methylcedrusin]	> 100 µg/mL	did not show good anti-inflammatory activity
8.3 ± 0.96 µg/mL	46.8 ± 5.87 µg/mL	COc1cc2oc(-c3ccc(O)cc3)cc(=O)c2c(O)c1C [Compound 9, 8-demethylsideroxylin]	20.4 µg/mL	
4.64 ± 1.5 µg/mL	4.19 ± 2.6 µg/mL	COc1cc(/C=C/C(=O)CC(=O)/C=C/c2ccc(O)c(OC)c2)ccc1O [curcumin, reference compound]	10.9 ± 1.3 µg/mL	

Continued, compound first:

SMILES	IC50 [1]	IC50 [2]	CC50 [3]	Anti-inflammatory activity (in words) [1]
COc1c(C)c(O)cc2c1C[C@@H]1OCc3c(cc4c(c3O)OCO4)[C@H]1O2 [Compound 1, Myrtinol A]	11.5 ± 0.14 µg/mL	24.5 ± 0.28 µg/mL	18.8 ± 0.39 µg/mL	
COc1cc2c(c(O)c1OC)CO[C@H]1Cc3c(cc(O)c(C)c3OC)O[C@H]21 [Compound 2, Myrtinol B]	16.2 ± 0.77 µg/mL	52.4 ± 7.47 µg/mL	37.2 ± 2.09 µg/mL	
COc1cc2c(c(O)c1C)[C@@H](O)[C@@H]1OCc3c(cc(OC)c(OC)c3O)[C@H]1O2 [Compound 3, Myrtinol C]	> 100 µg/mL	> 100 µg/mL	> 100 µg/mL	inactive
COc1cc2c(c(O)c1C)C[C@@H]1OCc3c(cc(OC)c(OC)c3O)[C@H]1O2 [Compound 4, Myrtinol D]	29.3 ± 10.9 µg/mL	91.3 ± 7.14 µg/mL	71.5 ± 14.7 µg/mL	
COc1cc2c(c(OC)c1C)C[C@@H]1OCc3c(cc4c(c3O)OCO4)[C@H]1O2 [Compound 5, Myrtinol E]	8.51 ± 0.47 µg/mL	17.2 ± 0.22 µg/mL	15.5 ± 0.42 µg/mL	
COc1cc2c(c(OC)c1C)C[C@@H]1OCc3c(cc(OC)c(OC)c3O)[C@H]1O2 [Compound 6, Myrtinol F]	12.6 ± 0.26 µg/mL	30.6 ± 5.01 µg/mL	19.8 ± 0.86 µg/mL	

Reference: PMC10004088, “Myrtinols A–F: New Anti-Inflammatory Peltogynoid Flavonoid Derivatives from the Leaves of Australian Indigenous Plant Backhousia myrtifolia” (Molecules, 2023)
